Marks after values point to notes of the source that are not given here.
Key:
Format in all cases: in vivo
[1] = tested on: Blumeria graminis f. sp. tritici (also known as Erysiphe graminis f. sp. tritici, the causal agent of wheat powdery mildew); assay: Test D: wheat powdery mildew, preventive spray on wheat seedlings, visual disease rating; conditions: wheat powdery mildew, preventive spray on wheat seedlings
How it was run: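 Preventive test: seedlings sprayed to run-off and inoculated with powdery mildew spores one day later. Suspensions were made in 50/50 acetone/water with 250 ppm Trem 014 surfactant (200 ppm equals 800 g/ha). Visual ratings after 8 days at 20 °C give percent disease control versus controls.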

[2] = tested on: Puccinia recondite f. sp. tritici (the causal agent of wheat leaf rust); assay: Test A: wheat leaf rust, preventive spray on wheat seedlings, visual disease rating; conditions: wheat leaf rust, preventive spray on wheat seedlings
How it was run: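 This was a preventive test: Puccinia recondite f. sp. tritici inoculum was applied one day after compound spray to run-off. Test suspensions were made in 50/50 acetone/water with 250 ppm surfactant, at 200 ppm (800 g/ha equivalent) or 40 ppm. Visual ratings of % disease control relative to controls were made after 24 h of saturated humidity and 7 growth-chamber days, all at 20° C.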

[3] = tested on: Botrytis cinerea (the causal agent of tomato Botrytis); assay: Test C: tomato Botrytis, preventive spray on tomato seedlings, visual disease rating; conditions: tomato Botrytis, preventive spray on tomato seedlings
How it was run: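 Preventive test: B. cinerea spore inoculation one day after tomato seedlings were sprayed to run-off with compound suspended in 50/50 acetone–water plus 250 ppm surfactant. Plants held 48 h at 20° C in saturated air, then 3 days at 24° C; visual ratings scored 100 (full control) to 0 versus controls; some entries used 40 ppm.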

[4] = tested on: Septoria tritici (the causal agent of wheat leaf blotch); assay: Test B: wheat leaf blotch, preventive spray on wheat seedlings, visual disease rating; conditions: wheat leaf blotch, preventive spray on wheat seedlings
How it was run: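 Preventive test: Septoria tritici spores applied one day after run-off spraying of seedlings (200 ppm equals 800 g/ha; some tests 40 ppm). After 48 h at 24 °C saturated atmosphere and 19 days at 20 °C, disease scored visually as % control relative to untreated plants.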

[5] = asterisk: 40 ppm test suspension
[6] = no asterisk (standard test suspension concentration, not 40 ppm)

| Structure (SMILES) | Test D rating (100 = 100% disease control, 0 = no disease control relative to the controls) [1, 5] | Test A rating (100 = 100% disease control, 0 = no disease control relative to the controls) [2, 5] | Test C rating (100 = 100% disease control, 0 = no disease control relative to the controls) [3, 5] | Test B rating (100 = 100% disease control, 0 = no disease control relative to the controls) [4, 5] | Test D rating (100 = 100% disease control, 0 = no disease control relative to the controls) [1, 6] | Test A rating (100 = 100% disease control, 0 = no disease control relative to the controls) [2, 6] | Test C rating (100 = 100% disease control, 0 = no disease control relative to the controls) [3, 6] | Test B rating (100 = 100% disease control, 0 = no disease control relative to the controls) [4, 6] |
| --- | --- | --- | --- | --- | --- | --- | --- | --- |
| COc1ccc(C(O)c2c(Cl)nc(C)n2-c2ccc(F)cc2F)c(Cl)c1 (stereo not drawn) [compound 307] | 0* % | 99* % | 0* % | 100* % | – | – | – | – |
| Cc1nc(Br)c(C(O)c2c(F)cc(F)cc2F)n1-c1ccc(Cl)cc1Cl (stereo not drawn) [compound 365] | – | – | – | – | 64% | 100% | 100% | 100% |
| OC(c1ccc(Cl)cc1)c1c(Cl)nc(Cl)n1-c1c(F)cc(F)cc1Cl (racemic) [compound 39] | – | – | – | – | 99% | 100% | 99% | 100% |
| Cc1nc(Br)c(C(O)c2ccc(Cl)cc2Cl)n1-c1ccc(F)cc1F (racemic) [compound 259] | – | – | – | – | 0% | 99% | 0% | 100% |
| Cc1nc(Cl)n(-c2c(F)cccc2Br)c1C(O)c1ccc(F)cc1F (stereo not drawn) [compound 205] | 93* % | 99* % | 100* % | 100* % | – | – | – | – |
| COc1ccc(C(O)c2c(Cl)ncn2-c2ccc(F)cc2Cl)c(Cl)c1 (stereo not drawn) [compound 356] | 0* % | 95* % | 0* % | 19* % | – | – | – | – |
| COc1ccc(C(O)c2c(Cl)nc(C)n2-c2ccc(F)cc2F)c(F)c1 (stereo not drawn) [compound 306] | 0* % | 100* % | 97* % | 100* % | – | – | – | – |
| Cc1nc(Br)c(C(O)c2ccc(F)cc2Cl)n1-c1c(F)cccc1Cl (stereo not drawn) [compound 188] | 99* % | 100* % | 99* % | 100* % | – | – | – | – |
| Cc1cc(F)ccc1C(O)c1c(Cl)nc(C)n1-c1c(Cl)cccc1Cl (stereo not drawn) [compound 366] | – | – | – | – | 97% | 99% | 100% | 100% |
| Cc1cc(F)ccc1C(O)c1c(Cl)nc(C)n1-c1c(F)cc(Cl)cc1F (stereo not drawn) [compound 111] | 0* % | 98* % | 0* % | 100* % | – | – | – | – |
| OC(c1ccc(F)cc1F)c1c(Cl)nc(Br)n1-c1c(F)cc(Cl)cc1F (stereo not drawn) [compound 125] | 79* % | 100* % | 100* % | 100* % | – | – | – | – |
| COc1ccc(C(O)c2c(Br)nc(C)n2-c2c(F)cccc2Cl)c(C)c1 (racemic) [compound 224] | 100* % | 100* % | 100* % | 100* % | – | – | – | – |
